Experimental data: article PMC7955127, “Preclinical small molecule WEHI-7326 overcomes drug resistance and elicits response in patient-derived xenograft models of human treatment-refractory tumors” (Cell Death & Disease, 2021)

Assays:
MDA-MB-231 = test: Cell growth inhibition assay, MDA-MB-231; type: cell-based; details: Homo sapiens; MDA-MB-231, breast carcinoma; 72 h viability assay, CellTiterGlo; mean of 3 ± SEM; read-out: IC50 (inhibition of cellular proliferation)
Method: (§1) Cells were plated at a density of between 500 to 5000 cells per well for adherent cell lines depending on doubling time, and 15,000 cells per well for lymphoblastic leukemia cell lines, in a 96-well plate in 200 μl of growth media. Plates were incubated overnight at 37 °C before adding the inhibitors. Inhibitors were serially diluted from the stock solutions in complete medium and added to the cells. Incubation in the presence of inhibitors was continued for […]. Cell viability was assessed by the AlamarBlue (Invitrogen) or CellTiterBlue/Glo (Promega) method according to manufacturer’s instructions. The curve fits and IC50 values were generated in PRISM (GraphPad, San Diego, CA).

PC3 = test: Cell growth inhibition assay, PC3; type: cell-based; details: Homo sapiens, PC-3; PC3, prostate carcinoma; 72 h viability assay, CellTiterGlo; mean of 3 ± SEM; read-out: IC50 (inhibition of cellular proliferation)
Method: as §1

SW480 = test: Cell cycle analysis (G2/M arrest, PI staining, flow cytometry), SW480; type: cell-based, human
Method: Fig. 2 Antimitotic activity of WEHI-7326: cancer cell lines and effects on tubulin polymerization. a Dose-dependent antimitotic activity of WEHI-7326, nocodazol and taxol in tumor cell lines SW480 (colorectal) and MDA-MB-231 (breast). Data are presented as percentage of cells in G2/M after overnight incubation with increasing concentrations of inhibitors and PI staining followed by flow cytometry analysis. Mean average of 3 independent experiments ±SEM. b EC50 values (nM) for G2/M arrest on SW480 and MDA-MB-231 cell lines, given as mean average of 3 independent experiments ±SEM. c Western blot analysis of mitotic arrest in SW480 and MDA-MB-231 cells treated with EC50 concentrations of WEHI-7326 or Paclitaxel as marked by expression of phosho-S10 Histone H3 (p-HH3 S10), at different timepoints post treatment. Expression of β-actin provided as loading control. d Cell cycle analysis of LIM1899 cells 72 h post treatment with increasing concentrations of WEHI-7326 as measured by PI staining for DNA content followed by flow cytometry analysis. Sub-G1 represents apoptotic fractions and >4 N cell fractions of mitotic slippage. e Immunofluorescence confocal microscopy of tubulin polymerization in SW480 cells treated by various agents. Cells were incubated for 24 h with control (0.1% DMSO), nocodazole (1 μM), paclitaxel (1 μM), myoseverin B (1 μM) or WEHI-7326 (1 μM). Cells were fixed and stained with β-tubulin antibody (green) and DAPI (DNA; blue) and phalloidin (actin, red). Shown are single confocal sections and enlarged areas (3x) to highlight changes in microtubule network; scale bar = 20 μm. Representative images from 2 independent experiments. f Cellular tubulin polymerization assay in cells: SW480 cells were incubated overnight with paclitaxel, myoseverin B or WEHI-7326, then processed to detect fractions of polymerized (P) and soluble (S) tubulin by western blot analysis. Representative blot of 3 independent experiments. g Tubulin polymerization was assessed in vitro over time using a fluorescence-based tubulin polymerization assay (BK011P). Tubulin was incubated with control (DMSO), paclitaxel (3 μM), nocodazole (15 μM) and WEHI-7326 at indicated concentrations (in DMSO). Polymerization was measured by excitation at 360 nm and emission at 420 nm. Representative graph of 3 independent experiments performed in duplicates. […]
Cells in log growth were supplemented with fresh medium with either vehicle (control) or compound at the stated final concentrations. […] After 1 h incubation at room temperature in the dark, cells were analyzed on a FACScan (Becton and Dickinson) in CellQuest. The percentage of cells in each phase of the cell cycle was determined using ModFit software (Verity, http://www.vsh.com). Early and late apoptotic responses elicited by WEHI-7326 were assessed using Dead Cell Apoptosis Kit (ThermoFisher Scientific) with Annexin V FITC and PI following manufacturer’s instructions. Cells were incubated 24 h with 6-point, 4-fold titration of WEHI-7326, washed twice with cold 1X PBS, resuspended in 1X Annexin Binding Buffer, incubated with FITC Annexin V and PI for 15 mins at RT in the dark and subsequently analyzed by flow cytometry.

134036 HGSOC PDX = test: HGSOC PDX model 134036; type: in vivo, NSG mice; details: 134036 C5 platinum refractory PDX; 20 mg/kg i.v. biweekly, 6 weeks
Method: Two to three mm ovarian tumor fragments were subcutaneously engrafted in the left flank of NSG mice and monitored by physical palpation for tumor growth and engraftment. Engrafted tumors were measured twice a week using digital Vernier calipers and maximum tumor diameter + perpendicular tumor length were digitally recorded into the Study Director software (v 3.0/4.0 StudyLog). Tumor volume was calculated automatically (tumor volume (mm^3) = 0.5236 x [larger diameter (mm) x smaller diameter (mm)^2]). Mice were randomized to treatment once their tumor volume reach 180–300 mm^3 and tumor measurements were performed twice a week up to 120 days or when the tumor volume reaches 700 mm^3.
Time to progressive disease (PD): Defined as the time (in days) from beginning of treatment to an increase in average tumor volume of >20% from the nadir (taken as the smallest average tumor volume recorded since treatment started or 200 mm^3 if nadir was <200 mm^3 as lesions smaller than this are difficult to measure with accuracy). Median time to harvest (TTH): Defined as the time (in days) from the beginning of treatment to day of harvest at 700 mm^3 and the median TTH was calculated and plotted using Kaplan-Meier curves. Based on ref. [27]. […]

COc1ccc(CNc2nc(NCc3ccc(CN)cc3)nc(NN3CC(=O)NC3=O)n2)cc1 [WEHI-7326]
IC50 (MDA-MB-231): 24.4 ± 3.1 nM | IC50 (PC3): 48.9 ± 11.1 nM | EC50 (SW480; Homo sapiens, SW480, read-out: EC50 (G2/M arrest)): 98 ± 10 nM | G2/M cell cycle arrest (SW480; SW480): strong G2/M cell cycle arrest | Tumor response (134036 HGSOC PDX): completely unresponsive
